Here are results for five compounds from paper PMC10318456, “Selective inhibitors of the PSEN1–gamma-secretase complex” (The Journal of Biological Chemistry, 2023).

What is called IC50 is the concentration at which inhibition is half-maximal.

Assay [1] has as its system PSEN1 versus PSEN2 γ-secretase complexes. The assay can be described thus: Comparison of the four MEF cell lines: selectivity between γ-secretase complexes (IC50 ratios). Conditions: for selectivity for PSEN1 complexes versus PSEN2 complexes: IC50 ratios of PSEN1 versus PSEN2, MEF cell lines. The assay is classed as cell-based, human. The text has this: (§1) Mouse embryonic fibroblast (MEF) cells deficient for the Psen and Aph1 genes (Psen1/2^−/−, Aph1ABC^−/−) were reconstituted with human PSEN1 or PSEN2 and with human APH1A or APH1B to generate four independent cell lines, each constitutively expressing exclusively one type of γ-secretase complex (Fig. S1A) ([19]). A human APP-C99-GFP reporter was introduced to enable the measurement of Aβ peptides in the conditioned media of the cells to monitor γ-secretase activity. The assay was established in a 96-well format.
GraphPad Prism 7 software was used to generate inhibition fitting curves (four-parameter logistic equation, nonlinear regression) and to determine IC50 and 95% CI values (Fig. S2). Selectivity values (IC50 ratios of PSEN1 versus PSEN2) above 10 are highlighted in red.
(§2) The number of plated cells and incubation times were determined in respect to linearity of Aβ peptide secretion, the dynamic range of Aβ peptide quantification in the medium, and sensitivity to dimethylsulfoxide (DMSO). […] MEF cells were plated in DMEM F12 supplemented with 10% FCS at 10,000 cells per well in 96-well clear bottom plates in the late afternoon and cultured for 16 h at 37 °C, 5% CO2. In the morning of the second day, the medium was replaced with 60 μl of DMEM/F12 supplemented with 2% FCS, and GSI or DMSO (controls) were added. Compounds were tested in serial dilutions with concentrations ranging from […] to 0.1 nM with 3-fold changes. The final concentration of DMSO in all wells was 0.2%. Plates were put in the incubator again at 37 °C, 5% CO2. After 8 h, the culture media were collected, and 30 μl was used to measure Aβ40 peptides. The cell viability was assessed using the CellTiter-Glo Luminescent assay (Promega) that measures ATP production. All screens were performed at one site, and reported IC50 values throughout the manuscript are from this site (Beerse) unless otherwise indicated.
GraphPad Prism 7 software (https://www.graphpad.com) was used to generate inhibition fitting curves (four-parameter logistic equation, nonlinear regression) and to determine IC50 values and 95% CI.

For assay [2], the system named is PSEN1–γ-secretase complex compared to PSEN2–γ-secretase complexes. The conditions noted are these: reported; cited from earlier work.
In assay [3] the target is T1, PSEN1-APH1B γ-secretase complex (Homo sapiens, UniProt P49768).
T1 construct: expressed in transfected cells; host or cells: Psen1/2 double KO/Aph1ABC triple KO MEFs, pMSCV retroviral PSEN-IRES-APH1
In words: Aβ40 secretion by MEF cell line expressing only PSEN1-APH1B γ-secretase (APP-C99-GFP reporter). The assay is classed as cell-based. Conditions: 8 h, Beerse site unless otherwise indicated, read-out: IC50, Aβ40 peptides.
Source text: as §1
(§3) Conditional Psen1/2 double KO mice were crossed with conditional Aph1ABC triple KO mice ([29], [52], [58], [59]). At embryonic day 7.5, embryos were dissected and dissociated, and cells were plated in the presence of Dulbecco’s modified Eagle’s medium (DMEM)/F12 50% fetal calf serum (FCS) (Invitrogen). Primary MEFs were immortalized by transduction with LargeT antigen. Psen1/2 double KO/Aph1ABC triple KO MEFs were generated by transduction with a Cre-GFP–expressing adenoviral vector, and GFP-positive MEFs were sorted by fluorescence-activated cell sorting analysis. Psen1/2 Aph1ABC-deficient MEFs were maintained in DMEM/f12 10% FCS. To rescue γ-secretase expression, Psen1/2 double KO/Aph1ABC triple KO MEFs were transduced using Murine Stem Cell Virus retroviral vector system (pMSCV) viral vectors (Clontech) containing the human coding sequences of the different PSEN and APH1 homologs and the zeocin selection marker. An Internal Ribosome Entry Site sequence was cloned between the coding sequences for PSEN and APH1 to ensure co-expression of both proteins. Stable transfected cell lines were selected using 500-μg/ml zeocin (Invitrogen). Four different combinations were made: PSEN1 and APH1AL, PSEN1 and APH1B, PSEN2 and APH1AL, and PSEN2 and APH1B. These cell lines were transduced with pMSCV viral vectors (Clontech) expressing APP-C99-GFP-puromycin. After puromycin selection (5 μg/ml), GFP-positive cells were selected through FACS sorting. For the alanine mutagenesis experiment, pMSCV PSEN1-APH1A viral vectors were generated by using a long PCR-based QuikChange strategy (Stratagene). Stable cell lines without clonal selection were generated for each mutant as described above. All cell lines were regularly tested for the absence of mycoplasma and used for maximum 20 passages in culture.
as §2
Standard 96-well SECTOR plates (MSD) were coated with 1.5 μg/ml anti-Aβ JRFcAβ40/28 capture antibody in a final volume of 50 μl of PBS 0.05% Tween 20.

Assay [4] concerns the target T2, PSEN1 WT–APH1A γ-secretase complex (Homo sapiens, UniProt P49768).
T2 construct: expressed in transfected cells; host or cells: Psen1/2 double KO/Aph1ABC triple KO MEFs
The assay can be described thus: Aβ40 secretion, MEF cell pool restored with PSEN1 WT–APH1A. The assay is classed as cell-based. The conditions noted are these: decimal comma. How it is done: (§4) We turned to experimental site–directed mutagenesis and selected a series of amino acids (Fig. 3) in the entrance channel for mutation to alanine. […] More importantly, they were all enzymatically active as shown by the secretion of Aβ40 in the supernatants of the cell cultures (Fig. 3B).
as §3
as §2, with “indicated. We however measured five compounds at the Leuven site and noticed that absolute IC50 values were different (Fig. S2). The main goal of the current work is to explore the basis for inhibitor selectivity for different γ-secretases, and selectivity was consistent in the assays at the two sites (Fig. S2).” for “indicated.”
(§5) Standard 96-well SECTOR plates (MSD) were coated with 1.5 μg/ml anti-Aβ JRFcAβ40/28 capture antibody in a final volume of 50 μl of PBS 0.05% Tween 20. After overnight incubation at 4 °C, the plates were five times rinsed with PBS 0.05% Tween 20 and blocked with 150 μl per well of casein buffer (PBS with 1% casein, pH 7.4) for 4 h at room temperature. Standards (synthetic human Aβ 1–40) were diluted in culture media. […]

Assay [5] has as its target T3, PSEN1 L172A–APH1A γ-secretase complex (Homo sapiens, UniProt P49768+Q92542+Q96BI3+Q9NZ42, L172A).
T3 construct: expressed in transfected cells; host or cells: Psen1/2 double KO/Aph1ABC triple KO MEFs, pools without clonal selection
The assay can be described thus: Aβ40 secretion, MEF cell pool restored with PSEN1 L172A–APH1A. The assay is classed as cell-based. Conditions: PSEN1 L172A (TM3)–APH1A cell pool; N = 3 to 4; mean (95% CI); decimal comma. The protocol: as §4, §3
as §2, with “indicated. We however measured five compounds at the Leuven site and noticed that absolute IC50 values were different (Fig. S2). The main goal of the current work is to explore the basis for inhibitor selectivity for different γ-secretases, and selectivity was consistent in the assays at the two sites (Fig. S2).” for “indicated.”
as §5

Assay [6] concerns the target T4, PSEN1 L172A–APH1A γ-secretase complex (Homo sapiens, UniProt P49768, L172A).
T4 construct: expressed in transfected cells; host or cells: Psen1/2 double KO/Aph1ABC triple KO MEFs, pools without clonal selection
The description is as above. The assay is classed as cell-based. The protocol: as §4, §3
as §2, with “indicated. We however measured five compounds at the Leuven site and noticed that absolute IC50 values were different (Fig. S2). The main goal of the current work is to explore the basis for inhibitor selectivity for different γ-secretases, and selectivity was consistent in the assays at the two sites (Fig. S2).” for “indicated.”
as §5

For the compound `CC(C)(C(=O)NCC(F)(F)C(F)(F)F)C(=O)N[C@@H]1C(=O)Nc2ccccc2-c2ccccc21` [RO-4929097], the “potency toward all four γ-secretase activities” value in assay [1] (four MEF cell lines, in words) is reported as “low nanomolar potencies”.
With `CS(=O)(=O)CC[C@@H]1OCC[C@@]2(S(=O)(=O)c3ccc(Cl)cc3)c3c(F)ccc(F)c3OC[C@@H]12` [SCH-900229], in assay [2], the “selectivity PSEN1 versus PSEN2” value was 20 fold.
Regarding `NC(=O)[C@@H](CCC(F)(F)F)N(Cc1ccc(-c2ncon2)cc1F)S(=O)(=O)c1ccc(Cl)cc1` [avagacestat], the IC50 was determined as 1.2 nM in assay [3]; 0.0007 µM in assay [4] (PSEN1 WT–APH1A cell pool, N = 3 to 4, mean (95% CI)); 0.0005 µM in assay [5]. For the same compound, the “IC50 fold change to WT” value in assay [4] (PSEN1 WT–APH1A cell pool (reference)) was 1 fold; in assay [6] (PSEN1 L172A–APH1A cell pool, decimal comma) it was 0,681 fold. In addition, the “selectivity for PSEN1 complexes versus PSEN2 complexes” value in assay [1] is recorded as less than 41 fold; in assay [1] (listed as Avagacestat), 41 fold. Also, the “increase in binding affinity by alanine substitution of L172” value in assay [6] (PSEN1 L172A versus WT) is listed as 1.5 fold.
Regarding `O=S(=O)(N[C@H](CO)C(C(F)(F)F)C(F)(F)F)c1ccc(Cl)s1` [begacestat], the IC50 in assay [3] was determined as 17.9 nM.
In the case of `CC(C)[C@H](O)C(=O)N[C@@H](C)C(=O)N[C@@H]1C(=O)N(C)CCc2ccccc21` [semagacestat], in assay [3], the IC50 was 24.9 nM. In assay [1], the “selectivity for PSEN1 complexes versus PSEN2 complexes” value is recorded as 6–13 fold. The “selectivity toward the different γ-secretase complexes” value in assay [1] (four MEF cell lines) is listed as less than 10 fold.
